The source of these data is article PMC5570656 (Journal of medicinal chemistry, 2017).

For one data set, the target named is nNOS (Homo sapiens, UniProt P29475). The data set can be described thus: Stability of stored compound solutions. Format: physicochemical. As to conditions: solutions stored for longer periods of time (ca. one week).
Data set [1] has as its system 45 different CNS targets and receptors. The conditions noted are these: of 45 targets, cited from earlier work.
Another data set relates to Caco-2. The conditions noted are these: in words, previously designed inhibitors; cited from earlier work.
The target of another data set is murine macrophage iNOS (Mus musculus, UniProt P29477). As to conditions: ratio of respective Ki values.
For another data set, the target named is bovine eNOS (Bos taurus, UniProt P29473). The conditions noted are these: ratio of respective Ki values.
The conditions of data set [2]: mice, in words, earlier work; cited from earlier work.
For data set [3] the following is noted: in words.
The conditions of data set [4]: rats, in words, earlier work; cited from earlier work.

SMILES strings stand for the structures. Counter-ions that a name gives are not always drawn.

Sequence of nNOS (P29475 whole entry): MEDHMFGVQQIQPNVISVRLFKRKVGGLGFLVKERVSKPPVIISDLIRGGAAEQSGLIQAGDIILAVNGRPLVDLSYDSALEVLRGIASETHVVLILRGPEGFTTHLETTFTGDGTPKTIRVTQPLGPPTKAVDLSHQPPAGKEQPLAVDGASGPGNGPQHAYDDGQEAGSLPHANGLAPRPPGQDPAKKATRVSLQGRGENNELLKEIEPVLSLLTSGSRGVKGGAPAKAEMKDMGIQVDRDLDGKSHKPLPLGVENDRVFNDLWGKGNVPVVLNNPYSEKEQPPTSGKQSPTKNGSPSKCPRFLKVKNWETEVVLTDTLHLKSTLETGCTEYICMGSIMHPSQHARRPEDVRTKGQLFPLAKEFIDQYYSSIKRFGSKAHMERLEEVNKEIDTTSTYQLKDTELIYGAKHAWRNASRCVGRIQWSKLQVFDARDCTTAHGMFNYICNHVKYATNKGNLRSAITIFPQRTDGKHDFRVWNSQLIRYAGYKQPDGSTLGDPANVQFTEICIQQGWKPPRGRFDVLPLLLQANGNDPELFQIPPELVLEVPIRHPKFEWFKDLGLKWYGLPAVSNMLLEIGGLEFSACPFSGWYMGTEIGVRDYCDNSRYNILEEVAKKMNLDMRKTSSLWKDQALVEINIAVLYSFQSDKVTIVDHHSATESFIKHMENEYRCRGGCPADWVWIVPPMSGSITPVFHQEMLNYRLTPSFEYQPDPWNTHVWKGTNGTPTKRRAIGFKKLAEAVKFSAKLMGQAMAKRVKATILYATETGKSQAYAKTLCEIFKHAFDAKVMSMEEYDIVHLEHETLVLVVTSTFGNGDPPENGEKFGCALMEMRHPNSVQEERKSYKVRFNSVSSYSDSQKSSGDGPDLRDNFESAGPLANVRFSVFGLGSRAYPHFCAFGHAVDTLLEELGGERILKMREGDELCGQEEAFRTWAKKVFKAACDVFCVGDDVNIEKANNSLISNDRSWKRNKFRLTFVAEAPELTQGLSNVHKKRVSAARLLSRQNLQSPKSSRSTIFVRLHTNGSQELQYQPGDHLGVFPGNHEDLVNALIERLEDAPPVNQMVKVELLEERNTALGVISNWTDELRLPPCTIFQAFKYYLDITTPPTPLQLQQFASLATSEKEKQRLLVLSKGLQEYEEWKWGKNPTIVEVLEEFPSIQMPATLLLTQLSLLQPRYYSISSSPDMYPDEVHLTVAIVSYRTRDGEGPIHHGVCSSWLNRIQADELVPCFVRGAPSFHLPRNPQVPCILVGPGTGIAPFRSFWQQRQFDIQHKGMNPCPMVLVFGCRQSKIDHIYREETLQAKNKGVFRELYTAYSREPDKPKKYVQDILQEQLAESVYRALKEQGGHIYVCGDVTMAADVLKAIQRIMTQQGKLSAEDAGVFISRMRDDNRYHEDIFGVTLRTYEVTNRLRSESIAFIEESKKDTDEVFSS
Sequence of murine macrophage iNOS (P29477 whole entry): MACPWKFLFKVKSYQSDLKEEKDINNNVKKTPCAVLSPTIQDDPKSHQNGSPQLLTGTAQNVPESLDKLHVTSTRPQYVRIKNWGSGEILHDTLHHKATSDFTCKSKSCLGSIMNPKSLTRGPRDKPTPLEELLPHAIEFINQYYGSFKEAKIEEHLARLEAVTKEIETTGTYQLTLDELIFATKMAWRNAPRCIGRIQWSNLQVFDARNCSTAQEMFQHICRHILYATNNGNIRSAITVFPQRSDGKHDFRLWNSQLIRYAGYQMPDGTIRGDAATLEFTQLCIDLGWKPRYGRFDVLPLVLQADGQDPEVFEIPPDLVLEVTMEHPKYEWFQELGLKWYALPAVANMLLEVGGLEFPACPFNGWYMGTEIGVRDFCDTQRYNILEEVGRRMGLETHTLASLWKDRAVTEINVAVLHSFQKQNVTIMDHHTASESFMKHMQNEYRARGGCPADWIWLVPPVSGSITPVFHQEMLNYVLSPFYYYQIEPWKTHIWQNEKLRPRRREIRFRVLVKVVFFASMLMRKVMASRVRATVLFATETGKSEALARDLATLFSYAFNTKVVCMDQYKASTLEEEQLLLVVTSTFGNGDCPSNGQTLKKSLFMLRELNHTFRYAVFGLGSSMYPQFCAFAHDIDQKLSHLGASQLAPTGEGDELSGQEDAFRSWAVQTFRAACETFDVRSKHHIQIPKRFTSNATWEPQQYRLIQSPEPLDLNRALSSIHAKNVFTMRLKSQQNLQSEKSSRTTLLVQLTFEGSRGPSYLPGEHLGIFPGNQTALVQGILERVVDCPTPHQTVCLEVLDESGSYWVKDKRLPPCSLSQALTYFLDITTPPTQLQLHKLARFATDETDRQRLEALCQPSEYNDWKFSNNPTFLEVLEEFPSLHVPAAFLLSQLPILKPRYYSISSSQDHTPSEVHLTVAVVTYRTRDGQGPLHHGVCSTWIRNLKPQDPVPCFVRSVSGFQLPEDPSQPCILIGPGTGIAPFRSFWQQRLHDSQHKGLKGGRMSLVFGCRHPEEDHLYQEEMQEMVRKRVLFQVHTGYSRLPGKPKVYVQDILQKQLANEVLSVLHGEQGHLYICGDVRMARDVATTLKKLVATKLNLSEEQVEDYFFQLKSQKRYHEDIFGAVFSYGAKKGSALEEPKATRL
Sequence of bovine eNOS (P29473 whole entry): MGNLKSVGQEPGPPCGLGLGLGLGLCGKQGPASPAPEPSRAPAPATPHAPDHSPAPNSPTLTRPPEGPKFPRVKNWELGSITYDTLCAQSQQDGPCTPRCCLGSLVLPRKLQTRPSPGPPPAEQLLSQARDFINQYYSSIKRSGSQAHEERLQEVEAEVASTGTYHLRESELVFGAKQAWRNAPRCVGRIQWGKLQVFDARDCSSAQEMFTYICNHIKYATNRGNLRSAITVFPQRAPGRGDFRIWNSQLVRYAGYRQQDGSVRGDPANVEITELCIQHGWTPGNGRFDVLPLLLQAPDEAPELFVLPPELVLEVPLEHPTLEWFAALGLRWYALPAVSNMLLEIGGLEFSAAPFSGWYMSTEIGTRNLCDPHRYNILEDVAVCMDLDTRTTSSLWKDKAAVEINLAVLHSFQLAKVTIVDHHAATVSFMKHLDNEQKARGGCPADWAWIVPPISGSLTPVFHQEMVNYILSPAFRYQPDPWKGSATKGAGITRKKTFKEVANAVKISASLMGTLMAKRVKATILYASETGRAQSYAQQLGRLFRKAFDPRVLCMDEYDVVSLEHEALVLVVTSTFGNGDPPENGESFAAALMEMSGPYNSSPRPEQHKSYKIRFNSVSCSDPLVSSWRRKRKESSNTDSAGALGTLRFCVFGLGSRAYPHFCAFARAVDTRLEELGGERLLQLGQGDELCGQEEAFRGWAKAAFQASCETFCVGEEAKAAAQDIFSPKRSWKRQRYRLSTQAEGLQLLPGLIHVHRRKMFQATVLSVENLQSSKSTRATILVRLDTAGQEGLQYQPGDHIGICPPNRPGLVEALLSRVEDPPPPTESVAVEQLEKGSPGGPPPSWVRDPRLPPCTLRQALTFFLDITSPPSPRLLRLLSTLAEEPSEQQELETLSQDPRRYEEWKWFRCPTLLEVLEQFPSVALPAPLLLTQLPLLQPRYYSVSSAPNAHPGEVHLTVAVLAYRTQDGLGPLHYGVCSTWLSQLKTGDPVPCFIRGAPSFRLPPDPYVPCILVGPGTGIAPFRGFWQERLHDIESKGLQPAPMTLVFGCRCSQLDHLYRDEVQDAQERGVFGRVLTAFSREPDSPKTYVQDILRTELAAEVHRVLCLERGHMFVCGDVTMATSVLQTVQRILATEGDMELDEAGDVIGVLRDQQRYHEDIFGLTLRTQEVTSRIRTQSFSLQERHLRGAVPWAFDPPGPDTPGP

Consider `CN(C)c1cccc(CCNCc2ccc3ccc(N)nc3c2)c1` [Compound 14, 3-(Dimethylamino)phenethyl)amino)methyl)quinolin-2-amine Trihydrochloride], for which, at nNOS, the stability of solutions entry is listed as “lost their nNOS inhibitory activity”.

`CNCc1cc(OCc2ccc3ccc(N)nc3c2)ccc1Cl` [Compound 6]: the “PDSP number of targets classified Moderate” value in data set [1] (100-300 nM) is given as 3. For the same compound, the “PDSP number of targets classified Insignificant” value in data set [1] (<50% bound at 10 μM) is listed as 22. Besides, in data set [1] (>300 nM), the “PDSP number of targets classified Weak” value was 17. Moreover, the “PDSP number of targets classified Concerning” value in data set [1] (Ki <100 nM) is given as 3. In the data set on Caco-2, the Caco-2 permeability result is recorded as “poor”.

Take `CN(C)c1cccc(CNCc2ccc3ccc(N)nc3c2)c1` [Compound 12, 7-(((3-(Dimethylamino)benzyl)amino)methyl)quinolin-2-amine Trihydrochloride]: on murine macrophage iNOS, the Selectivity rn/mi was determined as 71. Further, the Selectivity rn/be on bovine eNOS is recorded as 16.

As for `Nc1ccc2ccc(CCNCCc3cccc(F)c3)cc2n1` [Compound 4], the oral bioavailability result in data set [2] is “good”.

In the case of `N#Cc1cccc(NCc2ccc3ccc(N)nc3c2)c1` [Compound 7, 3-(((2-Aminoquinolin-7-yl)methyl)amino)benzonitrile Dihydrochloride], the solubility entry in data set [3] was “poor”.

For `Nc1ccc2ccc(CCNCCc3cccc(Cl)c3)cc2n1` [Compound 5], the brain penetration entry in data set [4] was “brain penetration”.
